How the values were obtained:
[1] = target: T1, Human recombinant MMP-9 (Homo sapiens, UniProt P14780); test: In vitro MMP inhibition, Ki determination (fluorogenic substrate II); format: biochemical
T1 construct: made in house; host or cells: MMP-9-transfected HT1080 cells (spent media)
Summary of the method: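 MMP-9 proenzyme purified from transfected HT1080 cell media, activated with APMA, trypsin or recombinant MMP-3; hydroxamates diluted in pH 7.5 Tris/NaCl/CaCl2 buffer. Cleavage of 4 μM MCA/Dpa substrate II followed by fluorescence (ex 330/em 420 nm), 1 h at room temperature. Ki from Morrison-equation fit, substrate at/below Km, uncorrected.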

[2] = target: T2, Human recombinant MMP-2 (Homo sapiens, UniProt P08253); test: as above; format: biochemical
T2 construct: made in house; host or cells: MMP-2-transfected p2AHT2 cells
T2 sequence (P08253 110-660): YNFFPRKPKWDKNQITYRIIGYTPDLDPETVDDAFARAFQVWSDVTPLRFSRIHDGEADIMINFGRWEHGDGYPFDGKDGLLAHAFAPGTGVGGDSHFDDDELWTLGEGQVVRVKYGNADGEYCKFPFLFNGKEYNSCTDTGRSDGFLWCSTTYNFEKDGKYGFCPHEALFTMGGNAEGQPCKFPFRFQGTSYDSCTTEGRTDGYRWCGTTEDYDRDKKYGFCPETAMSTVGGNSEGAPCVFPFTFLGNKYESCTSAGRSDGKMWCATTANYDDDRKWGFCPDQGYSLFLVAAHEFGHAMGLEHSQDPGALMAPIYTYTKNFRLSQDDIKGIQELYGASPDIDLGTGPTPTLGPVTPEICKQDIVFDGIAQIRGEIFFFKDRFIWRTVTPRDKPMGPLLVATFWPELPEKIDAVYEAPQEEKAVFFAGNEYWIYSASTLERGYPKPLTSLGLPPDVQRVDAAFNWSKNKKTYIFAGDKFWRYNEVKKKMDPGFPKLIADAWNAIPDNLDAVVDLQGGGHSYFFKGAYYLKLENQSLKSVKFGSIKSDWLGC

[3] = substrate (II) 4 μM, 1 hr room temperature, apparent Ki, values in parenthesis

T1 sequence (P14780 107-707 limits assumed): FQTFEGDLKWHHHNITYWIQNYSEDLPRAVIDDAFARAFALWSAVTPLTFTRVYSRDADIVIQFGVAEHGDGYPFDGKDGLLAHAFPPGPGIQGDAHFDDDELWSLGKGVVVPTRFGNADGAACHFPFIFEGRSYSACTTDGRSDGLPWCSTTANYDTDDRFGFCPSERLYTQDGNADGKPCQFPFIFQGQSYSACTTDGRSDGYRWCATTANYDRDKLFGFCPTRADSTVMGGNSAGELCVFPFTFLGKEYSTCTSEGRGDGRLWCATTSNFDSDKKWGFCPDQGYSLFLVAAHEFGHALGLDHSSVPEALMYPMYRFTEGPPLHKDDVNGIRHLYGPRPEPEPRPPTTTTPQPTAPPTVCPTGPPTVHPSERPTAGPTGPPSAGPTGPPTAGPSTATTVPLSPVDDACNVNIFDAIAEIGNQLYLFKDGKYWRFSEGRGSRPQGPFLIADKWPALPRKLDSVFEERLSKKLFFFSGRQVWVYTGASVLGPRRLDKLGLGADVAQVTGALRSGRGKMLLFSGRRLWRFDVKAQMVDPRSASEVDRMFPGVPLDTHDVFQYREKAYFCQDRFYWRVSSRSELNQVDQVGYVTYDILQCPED

Compound | Ki ([1]; value in parentheses) [nM] | Ki ([2]; value in parentheses) [nM] | Ki ([1]; value in parenthesis) [nM] | Ki ([2]; value in parenthesis) [nM] | further results
O=C(NO)C1(S(=O)(=O)c2ccc(OCCc3cccnc3)cc2)CCOCC1 [Example 557] | 33.6 | 6.46 | – | – | –
COCCN1CCC(C(=O)NO)(S(=O)(=O)c2ccc(OCCCc3cccc(-c4ccc(F)c(F)c4)c3)cc2)CC1 [Example 52] | – | – | – | – | Ki [1, 3]: 617 nM; Ki [2, 3]: 543 nM
CCc1ccc(CCCOc2ccc(S(=O)(=O)C3(C(=O)NO)CCOCC3)cc2)cn1 [Example 535] | 128 | 23.2 | – | – | –
COCCN1CCC(C(=O)NO)(S(=O)(=O)c2ccc(OCCCc3cccc(-c4ccc(Cl)cc4)c3)cc2)CC1 [Example 50] | – | – | – | – | Ki [1, 3]: 304 nM; Ki [2, 3]: 1130 nM
NC(=O)c1cccc(-c2noc(CCCOc3ccc(S(=O)(=O)C4(C(=O)NO)CCN(C5CC5)CC4)cc3)n2)c1 [Example 129] | – | – | 110 | 50 | –
CN1CCC(C(=O)NO)(S(=O)(=O)c2ccc(SCCNC(=O)c3cc4ccccc4o3)cc2)CC1 [Example 536] | 3400 | 744 | – | – | –
COCCN1CCC(C(=O)NO)(S(=O)(=O)c2ccc(OCCc3cccc(-c4ccccn4)c3)cc2)CC1 [Example 548] | 279 | 1.58 | – | – | –
CCCCc1ccc(-c2noc(CCCOc3ccc(S(=O)(=O)C4(C(=O)NO)CCOCC4)cc3)n2)c(C)c1 [Example 183] | – | – | 2510 | 643 | –
COCCN1CCC(C(=O)NO)(S(=O)(=O)c2ccc(OCCCc3cccc(-c4ccc(C#N)cc4)c3)cc2)CC1 [Example 514] | 224 | 293 | – | – | –

Continued, in another order:

Ki ([1]; value in parentheses) [nM] | Ki ([2]; value in parentheses) [nM] | Ki ([1]; value in parenthesis) [nM] | Ki ([2]; value in parenthesis) [nM] | Compound | further results
1320 | 739 | – | – | O=C(NO)C1(S(=O)(=O)c2ccc(OCCc3ccc(-c4cccc(O)c4)cc3)cc2)CCOCC1 [Example 532] | –
30.4 | 21.3 | – | – | Cc1ccc(NC(=O)CCCOc2ccc(S(=O)(=O)C3(C(=O)NO)CCOCC3)cc2)cc1I [Example 527] | –
– | – | 8850 | 3970 | O=C(NO)C1(S(=O)(=O)c2ccc(OCCc3cccc(-c4ccc(OC(F)(F)F)cc4)c3)cc2)CCOCC1 [Example 112] | –
– | – | 6600 | 3190 | O=C(NO)C1(S(=O)(=O)c2ccc(OCCCc3cccc(-c4ccc(Cl)cc4Cl)c3)cc2)CCOCC1 [Example 171] | –
212 | 68.1 | – | – | O=C(NO)C1(S(=O)(=O)c2ccc(OCCc3ccccn3)cc2)CCOCC1 [Example 556] | –
– | – | > 10000 | 4620 | O=C(NO)C1(S(=O)(=O)c2ccc(OCCc3cccc(-c4ccc(Cl)c(Cl)c4)c3)cc2)CCOCC1 [Example 121] | –
– | – | 220 | 116 | COCCN1CCC(C(=O)NO)(S(=O)(=O)c2ccc(OCCCc3nc(-c4ccc(C5(c6ccccc6)CC5)cc4)no3)cc2)CC1 [Example 185] | –
38.5 | 526 | – | – | COCCN1CCC(C(=O)NO)(S(=O)(=O)c2ccc(OCCCc3cccc(-c4cccc(F)c4)c3)cc2)CC1 [Example 511] | –
1860 | 727 | – | – | COCCN1CCC(C(=O)NO)(S(=O)(=O)c2ccc(OCCc3cccc(-c4ccc(Cl)cc4)c3)cc2)CC1 [Example 547] | –
7.51 | 5.49 | – | – | CCCc1ccc(COc2ccc(S(=O)(=O)C3(C(=O)NO)CCOCC3)cc2)cn1 [Example 550] | –
2310 | 434 | – | – | O=C(NO)C1(S(=O)(=O)c2ccc(OCCCc3ccc(F)c(-c4ccccc4)c3)cc2)CCOCC1 [Example 504] | –
– | – | 6500 | 5500 | Cc1cc(-c2cccc(CCCOc3ccc(S(=O)(=O)C4(C(=O)NO)CCOCC4)cc3)c2)ccc1F [Example 168] | –

From patent publication US20040024024A1, “Aromatic sulfone hydroxamates and their use as protease inhibitors” (priority 2001, published 2004)
